PubChem BioAssay (NCI)
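Cells were grown in 96-well plates and exposed to each compound for 48 hours at five concentrations; endpoints were interpolated linearly between bracketing concentrations, or set to the highest concentration if not reached. The concentration for 50% growth inhibition is given as GI50. The concentration for full growth arrest is given as TGI.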

Assays:
Test in all cases: DTP human tumour cell line panel, 48 h
[1] = system: UACC-257 melanoma
[2] = system: M14 melanoma
[3] = system: SK-MEL-2 melanoma
[4] = system: SNB-75 CNS
[5] = system: NCI-H522 lung
[6] = system: SNB-19 CNS
[7] = system: RXF 393 renal
[8] = system: COLO 205 colon
[9] = system: SK-MEL-5 melanoma
[10] = system: HL-60(TB) leukemia

Compound | TGI [1] [µM] | TGI [2] [µM] | TGI [3] [µM] | TGI [4] [µM] | TGI [5] [µM] | TGI [6] [µM] | TGI [7] [µM] | TGI [8] [µM] | TGI [9] [µM] | TGI [10] [µM] | GI50 [1] [µM] | GI50 [2] [µM] | GI50 [3] [µM] | GI50 [4] [µM] | GI50 [5] [µM] | GI50 [6] [µM] | GI50 [7] [µM] | GI50 [8] [µM] | GI50 [9] [µM] | GI50 [10] [µM]
O=C(CCc1nc(=S)[nH][nH]1)Nc1ccccc1Cl | > 100 | > 100 | > 100 | > 100 | > 100 | > 100 | > 100 | > 100 | > 100 | > 100 | – | – | – | – | – | – | – | – | – | –
Clc1cc(Cl)c2ns[s+]c2c1Cl | > 100 | > 100 | > 100 | > 100 | > 100 | > 100 | > 100 | > 100 | > 100 | > 100 | – | – | – | – | – | – | – | – | – | –
CC/C=C\C[C@H](O)C/C=C1/C(=O)C=C[C@@H]1C/C=C\CCCC(=O)OC | 7.09 | 4.72 | 4.2 | 26 | 2.43 | 14 | 3.58 | 4.02 | 2.91 | 7.07 | 2.36 | 1.32 | 1.84 | 11.7 | 1.03 | 2.88 | 1.91 | 1.84 | 1.54 | 1.74
Cc1ccc(NC(=O)c2cccc(C(C)(C)C#N)c2)cc1Nc1ccc2ncn(C)c(=O)c2c1 | > 100 | – | 8.69 | > 100 | > 100 | > 100 | > 73.4 | 92.2 | 20 | 13.9 | 0.0405 | 0.019 | 0.0692 | 12.7 | 3.88 | 5.48 | 6.87 | 0.0257 | 1.26 | 0.0547
c1ccc(Sc2ccc(Cc3nc4cc5ccccc5cc4[nH]3)cc2)cc1 | 29.1 | > 74.5 | > 100 | > 100 | > 62.9 | > 100 | > 100 | 30.9 | 18.4 | > 100 | 5.33 | 21 | 53.6 | > 66.5 | 9.69 | 8.89 | 21.2 | 10.1 | 2.88 | 76.4
COc1ccc2[nH]c3c4[nH]c5ccc(OC)cc5c4c4c(c3c2c1)C(=O)NC4=O | > 25 | > 25 | > 25 | > 25 | > 25 | > 25 | > 15.4 | > 25 | > 25 | > 25 | > 25 | > 13.1 | 12.2 | > 13.2 | 2.32 | > 25 | – | > 25 | > 22 | > 21.1
COc1ccc(/C=C/c2c(C(=O)/C=C/c3ccccc3)c(C)nc3ccccc23)cc1 | 3.21 | 4.44 | 5.06 | 4.44 | 4.83 | 3.07 | 3.04 | 3.5 | 3.13 | 5.79 | 1.7 | 1.84 | 2.11 | 1.46 | 1.72 | 1.66 | 1.63 | 1.76 | 1.73 | 2.3
Cc1cc(NS(=O)(=O)c2ccc(Nc3c4ccccc4nc4c(C(=O)N5CCN(CCO)CC5)cccc34)cc2)no1 | > 100 | > 100 | > 100 | > 100 | > 100 | > 100 | > 100 | > 100 | > 100 | > 100 | – | – | – | – | – | – | – | – | – | –
CCCC(CCC)NCC(O)c1cc(-c2ccc(C(F)(F)F)cc2)nc(C(F)(F)F)c1 (stereo not drawn) | 3.45 | 3.32 | 3.92 | 3.3 | 3.26 | 3.42 | 2.82 | 3.63 | 3.1 | 3.97 | 1.8 | 1.75 | 2.27 | 1.72 | 1.71 | 1.79 | 1.47 | 2 | 1.73 | 2.11
